Test results from patent US20060046966A1, “Antipicornaviral compounds and compositions, their pharmaceutical uses, and materials for their synthesis” (Agouron Pharmaceuticals, Inc., priority 1998, published 2006).
Where two headings read alike, the source gives them in different places.

How the values were obtained:
HRV (10) = assay: Antirhinoviral H1-HeLa cell culture assay, HRV serotype 10; format: cell-based, human rhinovirus; conditions: Human rhinovirus sp., H1-HeLa, H1-HeLa cells, XTT
Procedure: (§1) In this cell protection assay, the ability of compounds to protect cells against HRV infection was measured by the XTT dye reduction method, which is described in Weislow et al., J. Natl. Cancer Inst. 1989, vol. 81, 577-586.
(§2) H1-HeLa cells were infected with HRV-14 at a multiplicity of infection (m.o.i.) of 0.13 (virus particles/cell) or mock-infected with medium only. Infected or mock-infected cells were resuspended at 8×10^5 cells per mL, and incubated with appropriate concentrations of the compounds to be tested. Two days later, XTT/PMS was added to test plates and the amount of formazan produced was quantified spectrophotometrically at 450/650 nm. The EC50 value was calculated as the concentration of compound that increased the percentage of formazan production in compound-treated, virus-infected cells to 50% of that produced by compound-free, mock-infected cells. The 50% cytotoxic dose (CC50) was calculated as the concentration of compound that decreased the percentage of formazan produced in compound-treated, mock-infected cells to 50% of that produced by compound-free, mock-infected cells. The therapeutic index (TI) was calculated by dividing the CC50 value by the EC50 value.
(§3) All strains of human rhinovirus (HRV) for use in this assay were purchased from American Type Culture Collection (ATCC), except for HRV serotype-14 (produced from the infectious cDNA clone constructed by Dr. Robert Rueckert, Institute for Molecular Virology, University of Wisconsin, Madison, Wis.). HRV stocks were propagated and viral assays were performed in H1-HeLa cells (ATCC). Cells were grown in minimal essential medium with 10% fetal bovine serum, available from Life Technologies (Gaithersburg, Md.).
(§4) The compounds were tested against control compounds WIN 51711, WIN 52084, and WIN 54954 (obtained from Sterling-Winthrop Pharmaceuticals), Pirodavir (obtained from Janssen Pharmaceuticals), and Pleconaril (prepared according to the method described in Diana et al., J. Med. Chem 1995, vol. 38, 1355). Antiviral data obtained for the test compounds are shown in Tables 1 and 3, where all data are for HRV serotype-14 unless otherwise noted in parentheses.

[1] = molecular target: T1, rhinovirus 3C protease from HRV serotype-14 (Human rhinovirus 14, UniProt P03303); assay: Inhibition of rhinovirus 3C protease (FRET assay), serotype 14; format: biochemical; conditions: HRV serotype-14 3C protease; progress curves in enzyme start experiments; read-out: Protease Inhibition kobs/[I]
T1 construct: Recombinant rhinovirus 3C proteases; made in house
Procedure: (§5) Stock solutions (50 mM, in DMSO) of various compounds were prepared; dilutions were in the same solvent. Recombinant rhinovirus 3C proteases (see Birch et al., “Purification of recombinant human rhinovirus 14 3C protease expressed in Escherichia coli,” Protein Expr. Pur. 1995, 6(5), 609-618) from serotypes 14, 16, and 2 were prepared by the following standard chromatographic procedures: (1) ion exchange using Q Sepharose Fast Flow from Pharmacia; (2) affinity chromatography using Affi-Gel Blue from Biorad; and (3) sizing using Sephadex G-100 from Pharmacia. Each assay sample contained 2% DMSO, 50 mM tris pH 7.6, 1 mM EDTA, a test compound at the indicated concentration, approximately 1 μM substrate, and 50-100 nM protease. The kobs/I values were obtained from reactions initiated by addition of enzyme rather than substrate. RVP activity was measured in the fluorescence resonance energy transfer assay. The substrate was (N-terminal) DABCYL-(Gly-Arg-Ala-Val-Phe-Gln-Gly-Pro-Val-Gly)-EDANS. In the uncleaved peptide, the EDANS fluorescence was quenched by the proximal DABCYL moiety. When the peptide was cleaved, the quenching was relieved, and activity was measured as an increase in fluorescence signal. In Table 1, all data are for rhinovirus 3C protease from HRV serotype-14 (produced from the infectious cDNA clone constructed by Dr. Robert Rueckert, Institute for Molecular Virology, University of Wisconsin, Madison, Wis.). […] The data in the column designated kobs/[I] were measured from progress curves in enzyme start experiments.

[2] = Cytotoxicity in mock-infected H1-HeLa cells (antirhinoviral assay, XTT); format: cell-based; conditions: human, 50% cytotoxic dose, two days
Procedure: as §2, §3

HRV (1A) = assay: Antirhinoviral H1-HeLa cell culture assay, HRV serotype 1A; format: cell-based; conditions: Human rhinovirus sp., H1-HeLa cells, XTT
Procedure: as §1, §2, §3, §4

HRV-14 = assay: Antirhinoviral H1-HeLa cell culture assay, HRV-14; format: cell-based, human rhinovirus; conditions: Rhinovirus B, HRV14, H1-HeLa, HRV serotype-14, H1-HeLa cells
Procedure: as §1, §2, §3, §4

[3] = molecular target: T2, rhinovirus 3C protease, serotype 2 (Human rhinovirus 2, UniProt P04936); assay: Inhibition of rhinovirus 3C protease (FRET assay), serotype 2; format: biochemical; conditions: Rhinovirus Serotype (2) 3C protease; read-out: kobs/I
T2 construct: Recombinant rhinovirus 3C proteases; made in house
Procedure: as §5

[4] = system: Coxsackievirus type A-21 (CAV-21); assay: Anticoxsackieviral cell culture assay, CAV-21; format: cell-based; conditions: H1-HeLa, 48 h
Procedure: (§6) Coxsackievirus types A-21 (CAV-21) and B3 (CVB-3) were purchased from American Type Culture Collection (ATCC, Rockville, Md.). Virus stocks were propagated and antiviral assays were performed in H1-HeLa cells (ATCC). Cells were grown in minimal essential medium with 10% fetal bovine serum (Life Technologies, Gaithersburg, Md.).
(§7) The ability of compounds to protect cells against either CAV-21 or CVB-3 infection was measured by the XTT dye reduction method. This method is described in Weislow et al., J. Natl. Cancer Inst. 1989, vol. 81, 577-586. H1-HeLa cells were infected with CAV-21 or CVB-3 at a multiplicity of infection (m.o.i.) of 0.025 or 0.075, respectively, or mock-infected with medium only. H1-HeLa cells were plated at 4×10^4 cells per well in a 96-well plate and incubated with appropriate concentrations of the test compound. One day (CVB-3) or two days (CAV-21) later, XTT/PMS was added to test plates and the amount of formazan produced was quantified spectrophotometrically at 450/650 nm. The EC50 was calculated as the concentration of compound that increased the formazan production in compound-treated, virus-infected cells to 50% of that produced by compound-free, uninfected cells. The 50% cytotoxic dose (CC50) was calculated as the concentration of compound that decreased formazan production in compound-treated, uninfected cells to 50% of that produced in compound-free, uninfected cells. The therapeutic index TI) was calculated by dividing the CC50 by the EC50.
(§8) The compounds were tested against control compounds WIN 54954 (obtained from Sterling-Winthrop Pharmaceuticals), Pirodavir (obtained from Janssen Pharmaceuticals), and Pleconaril (prepared according to Diana et al., J. Med. Chem. 1995, 38, 1355).

[5] = system: Echovirus type 11 (EV 11); assay: Anti-echoviral cell culture assay, EV 11; format: cell-based; conditions: Enterovirus B, MRC5, 96 h
Procedure: Echovirus type 11 (EV 11) and enterovirus type 70 (EV 70) were purchased from ATCC (Rockville, Md.). Virus stocks were propagated and antiviral assays were performed in MRC-5 cells (ATCC). Cells were grown in minimal essential medium with 10% fetal bovine serum (Life Technologies, Gaithersburg, Md.).
The ability of compounds to protect cells against either EV 11 or EV 70 infection was measured by the XTT dye reduction method (Weislow et al., J. Natl. Cancer Inst. 1989, vol. 81, 577-586). MRC-5 cells were infected with EV 11 or EV 70 at an m.o.i. of 0.003 or 0.004, respectively, or mock-infected with medium only. Infected or uninfected cells were added at 1×10^4 cells per well and incubated with appropriate concentrations of compound. Four days later, XTT/PMS was added to test plates, and the amount of formazan produced was quantified spectrophotometrically at 450/650 nm. The EC50 was calculated as the concentration of compound that increased the formazan production in compound-treated, virus-infected cells to 50% of that produced by compound-free, uninfected cells. The 50% cytotoxic dose (CC50) was calculated as the concentration of compound that decreased formazan production in compound-treated, uninfected cells to 50% of that produced in compound-free, uninfected cells. The therapeutic index (TI) was calculated by dividing the CC50 by the EC50.
The compounds were tested against control compounds Pirodavir (obtained from Janssen Pharmaceuticals) and Pleconaril (prepared according to Diana et al., J. Med. Chem. 1995, vol. 38, 1355). Antiviral data obtained for the test compounds against strain EV 11 and EV 70 are shown below in Table 5.

[6] = system: Coxsackievirus type B3 (CVB-3); assay: Anticoxsackieviral cell culture assay, CVB-3; format: cell-based; conditions: H1-HeLa, 24 h
Procedure: as §6, §7, §8

[7] = Table 1, XTT dye reduction, read-out: Cell Protection EC50

T1 sequence (P03303 1538-1719): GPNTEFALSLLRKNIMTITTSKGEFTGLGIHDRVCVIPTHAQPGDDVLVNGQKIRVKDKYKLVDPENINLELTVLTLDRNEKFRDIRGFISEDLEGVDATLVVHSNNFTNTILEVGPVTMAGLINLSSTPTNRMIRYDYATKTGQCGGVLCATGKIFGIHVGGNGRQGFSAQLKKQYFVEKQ
T2 sequence (P04936 1508-1690): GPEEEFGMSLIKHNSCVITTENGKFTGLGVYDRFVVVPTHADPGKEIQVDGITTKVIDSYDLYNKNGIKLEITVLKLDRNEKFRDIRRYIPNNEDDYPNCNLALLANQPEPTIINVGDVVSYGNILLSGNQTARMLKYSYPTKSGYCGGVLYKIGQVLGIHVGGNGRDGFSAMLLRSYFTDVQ

SMILES	EC50 (HRV (10)) [nM]	kinact/KI [1] [M⁻¹ s⁻¹]	EC50 (HRV (1A)) [nM]	EC50 (HRV-14; [7]) [nM]	EC50 (HRV-14; Table 3, XTT, read-out: EC50) [nM]	kinact/KI [3] [M⁻¹ s⁻¹]	CC50 at 2 days [2] [nM]	EC50 [4] [nM]	EC50 [5] [nM]	EC50 [6] [nM]
CCOC(=O)/C=C/[C@H](CCC(N)=O)NC(=O)[C@H](Cc1ccccc1)NC(=O)[C@H](CC(C)C)NC(=O)c1nc(C)c[nH]1 [Compound A-21]		17800		2500	2500		> 100000			
CCOC(=O)/C=C/[C@H](CCC(N)=O)NC(=O)[C@@H](CC(=O)[C@@H](NC(=O)c1cc(C)on1)C(C)C)Cc1ccc(F)cc1 [Compound B-1, Ethyl-3-[(5′-Methylisoxazole-3′-carbonyl)-L-ValΨ(COCH2)-L-(4-F-Phe)-L-Gln}-E-Propenoate]	400	240000	300	100	100					
Cc1cc(CCCOc2c(C)cc(-c3noc(C(F)(F)F)n3)cc2C)on1 [Pleconaril, reference compound]					10			90	160	> 10000

Now from value to compound, other results behind:

EC50 (HRV (10)) [nM]	kinact/KI [1] [M⁻¹ s⁻¹]	EC50 (HRV (1A)) [nM]	EC50 (HRV-14; [7]) [nM]	EC50 (HRV-14; Table 3, XTT, read-out: EC50) [nM]	kinact/KI [3] [M⁻¹ s⁻¹]	SMILES	CC50 at 2 days [2] [nM]	EC50 [4] [nM]	EC50 [5] [nM]	EC50 [6] [nM]
3300	167000	1800	60	60		CCOC(=O)/C=C/[C@H](CCC(N)=O)NC(=O)[C@H](Cc1ccc(F)cc1)NC(=O)[C@@H](NC(=O)C1SCCS1)C(C)(C)C [Compound A-17]	> 100000			
	257000		100	100	31000	CCOC(=O)/C=C/[C@H](C[C@@H]1CCNC1=O)NC(=O)[C@H](Cc1ccccc1)NC(=O)[C@H](CC(C)C)NC(=O)OCc1ccccc1 [Compound A-24, Ethyl-3-{Cbz-L-Leu-L-Phe-L-((S)-Pyrrol-Ala)}-E-Propenoate]				
